Data as given in BindingDB's records for patent US20250034165 (Chia Tai Tianqing Pharmaceutical Group, 2025).

Tests used:
[1] = target: Epidermal growth factor receptor (EGFR)(L858R)(T790M) (Homo sapiens, UniProt P00533, L858R/T790M); assay: Inhibitory Activity for EGFR (L858R/T790M) Kinase
Protocol: (§1) A 50 ng/μL EGFR (L858R/T790M, Carna) stock solution was diluted with a kinase buffer (50 mM HEPES, 10 mM MgCl2, 2 mM DTT, 1 mM EGTA, 0.01% Tween 20), and 6 μL of 1.67× working solution at 0.004175 ng/μL (final concentration: 0.0025 ng/μL) was added to each well. Different compounds dissolved in DMSO were added to wells using a nanoliter pipettor, resulting in the final concentrations of the compounds of 10 nM to 0.0024 nM (4-fold gradient, 7 concentrations in total), and blank control wells (without enzyme) and negative control wells (with enzyme, plus vehicle DMSO) were set, 2 replicate wells for each concentration. After enzyme was reacted with the compound or vehicle for 30 min, 5×ATP at 25 μM (final concentration: 5 μM, Sigma) prepared with a kinase buffer was mixed with 5× substrate at 0.5 μM (final concentration: 0.1 μM, ULight-poly GT, PerkinElmer) at a ratio of 1:1 (v:v), and the mixture was added to each well at 4 μL/well. After being sealed with a film, the plate was incubated at room temperature for 2 h, and then 5 μL of 4×EDTA at 40 mM (final concentration: 10 mM) was added to each well. After the plate was incubated for 5 min at room temperature, 5 μL of 4× detection reagent at 8 nM (final concentration: 2 nM, Eu-anti-phospho-tyrosine antibody, PerkinElmer) was added to each well. After being incubated at room temperature for 1 h, the plate was read using a PerkinElmer Envision multi-mode microplate reader (excitation: 320 nm, emission: 665 nm), and IC50 was calculated by four-parameter fitting.

[2] = target: Epidermal growth factor receptor [T790M,C797S,L858R] (UniProt P00533, C797S/L858R/T790M); assay: Inhibitory Activity for EGFR (L858R/T790M/C797S) Kinase
Protocol: as §1, with “(L858R/T790M/C797S, BPS)” for “(L858R/T790M, Carna)”, “0.00167” for “0.004175”, “0.001” for “0.0025”

[3] = target: Epidermal growth factor receptor (Homo sapiens, UniProt P00533); assay: Inhibitory Activity for EGFR (WT) Kinase
Protocol: A 50 ng/μL EGFR (WT, Carna) stock solution was diluted with a kinase buffer (50 mM HEPES, 10 mM MgCl2, 2 mM DTT, 1 mM EGTA, 0.01% Tween 20), and 6 μL of 1.67× working solution at 0.005 ng/μL (final concentration: 0.003 ng/μL) was added to each well. Different compounds dissolved in DMSO were added to the wells using a nanoliter pipettor, resulting in the final concentrations of the compounds of 100 nM to 0.0244 nM (4-fold gradient for 7 concentrations in total), and blank control wells (without enzyme) and negative control wells (with enzyme, plus vehicle DMSO) were set, 2 replicate wells for each concentration. After enzyme was reacted with the compound or vehicle for 30 min, 5×ATP at 25 μM (final concentration: 5 μM, Sigma) prepared with a kinase buffer was mixed with 5× substrate at 0.5 μM (final concentration: 0.1 μM, ULight-poly GT, PerkinElmer) at a ratio of 1:1 (v:v), and the mixture was added to each well at 4 μL/well. After being sealed with a film, the plate was incubated at room temperature for 2 h, and then 5 μL of 4×EDTA at 40 mM (final concentration: 10 mM) was added to each well. After the plate was incubated for 5 min at room temperature, 5 μL of 4× detection reagent at 8 nM (final concentration: 2 nM, Eu-anti-phospho-tyrosine antibody, PerkinElmer) was added to each well.

Chain of Epidermal growth factor receptor (EGFR)(L858R)(T790M) (P00533 25-1210 T790M/L858R limits assumed): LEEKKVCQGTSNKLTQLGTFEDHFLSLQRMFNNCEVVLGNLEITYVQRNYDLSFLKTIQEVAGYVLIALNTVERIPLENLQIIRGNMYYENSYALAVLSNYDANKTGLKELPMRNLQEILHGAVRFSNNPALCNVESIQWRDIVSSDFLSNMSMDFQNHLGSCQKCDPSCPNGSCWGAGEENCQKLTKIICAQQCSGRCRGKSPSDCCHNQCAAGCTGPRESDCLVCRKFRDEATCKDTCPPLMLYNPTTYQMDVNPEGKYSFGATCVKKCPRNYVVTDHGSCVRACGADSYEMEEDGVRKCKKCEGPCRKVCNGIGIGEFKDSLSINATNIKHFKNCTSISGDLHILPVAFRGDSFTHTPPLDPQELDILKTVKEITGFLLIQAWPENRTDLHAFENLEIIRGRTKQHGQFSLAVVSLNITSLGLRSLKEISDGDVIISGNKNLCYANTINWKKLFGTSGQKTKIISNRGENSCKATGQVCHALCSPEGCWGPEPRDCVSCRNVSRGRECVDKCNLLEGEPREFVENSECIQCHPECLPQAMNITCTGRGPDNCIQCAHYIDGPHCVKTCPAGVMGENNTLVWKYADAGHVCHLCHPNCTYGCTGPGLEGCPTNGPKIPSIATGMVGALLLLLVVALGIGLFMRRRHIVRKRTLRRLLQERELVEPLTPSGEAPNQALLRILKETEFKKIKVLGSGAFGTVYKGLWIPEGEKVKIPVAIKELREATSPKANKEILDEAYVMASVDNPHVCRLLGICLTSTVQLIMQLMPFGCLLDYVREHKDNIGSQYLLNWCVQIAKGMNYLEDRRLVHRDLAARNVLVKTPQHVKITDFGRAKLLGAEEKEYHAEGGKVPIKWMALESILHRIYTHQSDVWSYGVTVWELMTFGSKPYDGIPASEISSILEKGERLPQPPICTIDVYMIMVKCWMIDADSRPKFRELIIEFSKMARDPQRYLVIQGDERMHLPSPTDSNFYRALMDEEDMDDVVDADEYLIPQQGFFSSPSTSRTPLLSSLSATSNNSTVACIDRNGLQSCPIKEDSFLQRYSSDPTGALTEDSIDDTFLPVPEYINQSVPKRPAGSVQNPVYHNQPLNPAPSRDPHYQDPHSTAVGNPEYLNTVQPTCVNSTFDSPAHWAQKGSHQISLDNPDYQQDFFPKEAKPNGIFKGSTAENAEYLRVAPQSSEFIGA
Chain of Epidermal growth factor receptor [T790M,C797S,L858R] (P00533 25-1210 T790M/C797S/L858R limits assumed): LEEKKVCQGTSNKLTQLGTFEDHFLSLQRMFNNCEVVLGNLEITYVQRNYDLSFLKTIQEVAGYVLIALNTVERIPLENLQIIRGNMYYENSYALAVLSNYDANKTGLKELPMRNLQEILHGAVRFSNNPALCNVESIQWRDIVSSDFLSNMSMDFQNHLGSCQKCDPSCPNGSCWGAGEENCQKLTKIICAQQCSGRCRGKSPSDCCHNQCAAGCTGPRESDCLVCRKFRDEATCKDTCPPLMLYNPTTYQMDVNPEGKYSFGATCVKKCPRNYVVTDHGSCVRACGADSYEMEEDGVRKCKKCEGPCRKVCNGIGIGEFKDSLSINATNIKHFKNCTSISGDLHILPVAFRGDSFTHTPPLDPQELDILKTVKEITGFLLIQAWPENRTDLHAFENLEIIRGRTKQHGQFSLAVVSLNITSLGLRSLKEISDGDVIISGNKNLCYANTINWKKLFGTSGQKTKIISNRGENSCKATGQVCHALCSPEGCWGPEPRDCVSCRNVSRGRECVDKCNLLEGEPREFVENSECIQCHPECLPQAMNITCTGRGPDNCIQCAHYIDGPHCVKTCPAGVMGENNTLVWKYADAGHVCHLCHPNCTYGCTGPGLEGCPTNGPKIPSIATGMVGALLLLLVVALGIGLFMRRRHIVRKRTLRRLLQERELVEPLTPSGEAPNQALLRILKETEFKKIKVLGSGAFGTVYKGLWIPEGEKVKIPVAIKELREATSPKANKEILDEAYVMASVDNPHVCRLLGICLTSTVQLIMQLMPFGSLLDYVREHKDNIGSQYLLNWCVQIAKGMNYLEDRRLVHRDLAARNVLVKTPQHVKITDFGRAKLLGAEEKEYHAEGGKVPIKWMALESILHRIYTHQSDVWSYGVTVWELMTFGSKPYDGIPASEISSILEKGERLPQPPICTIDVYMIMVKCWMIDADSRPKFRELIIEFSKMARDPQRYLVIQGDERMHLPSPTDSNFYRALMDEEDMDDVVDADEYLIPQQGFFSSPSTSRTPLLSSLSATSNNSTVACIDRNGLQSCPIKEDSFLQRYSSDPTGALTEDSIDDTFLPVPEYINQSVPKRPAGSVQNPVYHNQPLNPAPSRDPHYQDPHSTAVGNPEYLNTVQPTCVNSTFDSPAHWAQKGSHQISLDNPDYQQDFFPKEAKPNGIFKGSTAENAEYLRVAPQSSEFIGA
Chain of Epidermal growth factor receptor (P00533 whole entry): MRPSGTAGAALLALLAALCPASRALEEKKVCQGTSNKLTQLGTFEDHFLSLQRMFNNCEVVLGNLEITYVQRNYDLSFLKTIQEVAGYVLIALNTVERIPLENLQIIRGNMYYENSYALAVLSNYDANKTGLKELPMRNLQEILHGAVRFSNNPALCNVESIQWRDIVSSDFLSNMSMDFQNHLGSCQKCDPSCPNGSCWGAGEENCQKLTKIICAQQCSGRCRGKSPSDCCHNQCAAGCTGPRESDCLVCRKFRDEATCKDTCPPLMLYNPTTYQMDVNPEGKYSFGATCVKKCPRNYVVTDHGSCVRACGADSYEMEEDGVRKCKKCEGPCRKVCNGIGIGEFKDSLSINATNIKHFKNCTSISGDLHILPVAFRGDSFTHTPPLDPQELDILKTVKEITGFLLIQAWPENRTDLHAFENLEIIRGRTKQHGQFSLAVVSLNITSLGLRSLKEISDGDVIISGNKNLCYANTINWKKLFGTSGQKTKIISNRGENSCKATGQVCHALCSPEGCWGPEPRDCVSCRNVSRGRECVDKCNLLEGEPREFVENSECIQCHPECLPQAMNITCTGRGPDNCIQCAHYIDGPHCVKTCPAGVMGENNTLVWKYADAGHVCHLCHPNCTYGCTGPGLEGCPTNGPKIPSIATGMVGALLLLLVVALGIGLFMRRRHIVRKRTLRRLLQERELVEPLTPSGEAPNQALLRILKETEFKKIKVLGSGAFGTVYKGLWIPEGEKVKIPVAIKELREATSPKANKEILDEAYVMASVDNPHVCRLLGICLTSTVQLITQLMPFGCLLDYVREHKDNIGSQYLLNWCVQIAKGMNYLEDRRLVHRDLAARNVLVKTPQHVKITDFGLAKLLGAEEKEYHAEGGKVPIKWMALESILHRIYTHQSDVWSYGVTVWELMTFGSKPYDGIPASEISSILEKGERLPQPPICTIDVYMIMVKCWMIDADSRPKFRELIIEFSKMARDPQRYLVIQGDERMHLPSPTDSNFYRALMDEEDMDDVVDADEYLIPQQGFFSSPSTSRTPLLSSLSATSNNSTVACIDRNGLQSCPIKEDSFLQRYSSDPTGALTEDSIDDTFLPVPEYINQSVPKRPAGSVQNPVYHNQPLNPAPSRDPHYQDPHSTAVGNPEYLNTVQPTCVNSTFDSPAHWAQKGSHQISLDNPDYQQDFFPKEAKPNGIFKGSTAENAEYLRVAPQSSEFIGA

Cc1cc2cc(n1)-c1cnn(C)c1OCCC[C@@H](C1CC1)CN1/C(=N/C2=O)Nc2cc(N[C@@H]3CC[C@@H](N(C)C)C3)ccc21 [US20250034165, Example 129]
IC50 [1]: 0.3 nM | IC50 [2]: 0.39 nM

Cc1cc2cc(n1)-c1cnn(C)c1OCCC[C@@H](C1CC1)CN1/C(=N/C2=O)Nc2cc(NC(C)C3(C)COC3)ccc21 (some centres not stated) [US20250034165, Example 89]
IC50 [1]: 0.8 nM | IC50 [2]: 0.6 nM

Cc1cc2cc(n1)-c1cnn(C)c1OCCC[C@@H](C1CC1)CN1/C(=N/C2=O)Nc2ccc(N[C@H](C)CN3CCCCC3)cc21 [US20250034165, Example 141]
IC50 [1]: 0.084 nM | IC50 [2]: 0.24 nM

Cc1cc2cc(n1)-c1cnn(C)c1OCCC[C@@H](C1CC1)CN1/C(=N/C2=O)Nc2ccc(N[C@@H](C)CN3CCCCC3)cc21 [US20250034165, Example 142]
IC50 [1]: 0.14 nM | IC50 [2]: 0.35 nM

Cc1cc2cc(n1)-c1cnn(C)c1OCCC[C@@H](C1CC1)CN1/C(=N/C2=O)Nc2ccc(N[C@H]3C[C@H](N(C)C)C3)cc21 [US20250034165, Example 128]
IC50 [1]: 0.63 nM | IC50 [2]: 0.46 nM

Cc1cc2cc(n1)-c1cnn(C)c1OCCC[C@@H](C1CC1)CN1/C(=N/C2=O)Nc2ccc(N[C@H]3C[C@@H](N(C)C)C3)cc21 [US20250034165, Example 127]
IC50 [1]: 0.41 nM | IC50 [2]: 0.35 nM

Cc1cc2cc(n1)-c1cnn(C)c1OCCC[C@@H](C1CC1)CN1/C(=N/C2=O)Nc2ccc(NCCN(C)C)cc21 [US20250034165, Example 28]
IC50 [3]: 0.45 nM

Cc1cc2cc(n1)-c1cnn(C)c1OCCC[C@@H](C1CC1)CN1/C(=N/C2=O)Nc2cc(N[C@H]3CC[C@H](N(C)C)C3)ccc21 [US20250034165, Example 135]
IC50 [1]: 0.32 nM | IC50 [2]: 0.43 nM

Cc1cc2cc(n1)-c1cnn(C)c1OCCC[C@@H](C1CC1)CN1/C(=N/C2=O)Nc2cc(N[C@@H](C)CCN3CCCCC3)ccc21 [US20250034165, Example 140]
IC50 [1]: 0.11 nM | IC50 [2]: 0.3 nM

Cc1cc2cc(n1)-c1cnn(C)c1OCCC[C@@H](C1CC1)CN1/C(=N/C2=O)Nc2ccc(N[C@H]3CC[C@@H](N(C)C)C3)cc21 [US20250034165, Example 132]
IC50 [1]: 0.082 nM

Cc1cc2cc(n1)-c1cnn(C)c1OCCC[C@@H](C1CC1)CN1/C(=N/C2=O)Nc2ccc(NC(=O)CCCN(C)C)cc21 [US20250034165, Example 113]
IC50 [1]: 0.15 nM | IC50 [2]: 0.12 nM

Cc1cc2cc(n1)-c1cnn(C)c1OCCC[C@@H](C1CC1)CN1/C(=N/C2=O)Nc2ccc(N[C@@H]3CC[C@H](N(C)C)C3)cc21 [US20250034165, Example 134]
IC50 [1]: 0.55 nM | IC50 [2]: 0.48 nM

Cc1cc2cc(n1)-c1cnn(C)c1OCCC[C@@H](C1CC1)CN1/C(=N/C2=O)Nc2ccc(N[C@H]3CC[C@H](N(C)C)CC3)cc21 [US20250034165, Example 100]
IC50 [1]: 0.23 nM

Cc1cc2cc(n1)-c1cnn(C)c1OCCC[C@@H](C1CC1)CN1/C(=N/C2=O)Nc2ccc(N[C@H](C)CCN3CCCCC3)cc21 [US20250034165, Example 143]
IC50 [1]: 0.11 nM | IC50 [2]: 0.4 nM

Cc1cc2cc(n1)-c1cnn(C)c1OCCC[C@@H](C1CC1)CN1/C(=N/C2=O)Nc2cc(N[C@H]3C[C@H](N(C)C)C3)ccc21 [US20250034165, Example 126]
IC50 [1]: 0.12 nM

Cc1cc2cc(n1)-c1cnn(C)c1OCCC[C@@H](C1CC1)CN1/C(=N/C2=O)Nc2ccc(N[C@H]3CC[C@@H](N(C)C)CC3)cc21 [US20250034165, Example 99]
IC50 [2]: 0.21 nM

Cc1cc2cc(n1)-c1cnn(C)c1OCCC[C@@H](C1CC1)CN1/C(=N/C2=O)Nc2cc(N[C@H]3CC[C@@H](N(C)C)C3)ccc21 [US20250034165, Example 131]
IC50 [1]: 0.094 nM

Cc1cc2cc(n1)-c1cnn(C)c1OCCC[C@@H](C1CC1)CN1/C(=N/C2=O)Nc2ccc(NC3CC(N(C)C)C3)cc21 (some centres not stated) [US20250034165, Example 98]
IC50 [1]: 0.26 nM | IC50 [2]: 0.28 nM

Cc1cc2cc(n1)-c1cnn(C)c1OCCC[C@@H](C1CC1)CN1/C(=N/C2=O)Nc2ccc(NC(=O)CN(C)C)cc21 [US20250034165, Example 111]
IC50 [1]: 0.26 nM

Cc1cc2cc(n1)-c1cnn(C)c1OCCC[C@@H](C1CC1)CN1/C(=N/C2=O)Nc2ccc(N[C@@H](C)CCN3CCCCC3)cc21 [US20250034165, Example 144]
IC50 [1]: 0.08 nM | IC50 [2]: 0.17 nM

Cc1cc2cc(n1)-c1cnn(C)c1OCCC[C@@H](C1CC1)CN1/C(=N/C2=O)Nc2ccc(N(C)C3CCN(C)CC3)cc21 [US20250034165, Example 117]
IC50 [1]: 0.77 nM | IC50 [2]: 0.45 nM

Cc1cc2cc(n1)-c1cnn(C)c1OCCC[C@@H](C1CC1)CN1/C(=N/C2=O)Nc2cc(NC3CC(N(C)C)C3)ccc21 (some centres not stated) [US20250034165, Example 93]
IC50 [1]: 0.61 nM | IC50 [2]: 0.5 nM

Cc1cc2cc(n1)-c1cnn(C)c1OCCC[C@@H](C1CC1)CN1/C(=N/C2=O)Nc2ccc(N[C@@H]3CC[C@@H](N(C)C)C3)cc21 [US20250034165, Example 130]
IC50 [1]: 0.3 nM | IC50 [2]: 0.36 nM

Cc1cc2cc(n1)-c1cnn(C)c1OCCC[C@@H](C1CC1)CN1/C(=N/C2=O)Nc2ccc(NC(=O)CCN(C)C)cc21 [US20250034165, Example 112]
IC50 [1]: 0.14 nM | IC50 [2]: 0.12 nM

Cc1cc2cc(n1)-c1cnn(C)c1OCCC[C@@H](C1CC1)CN1/C(=N/C2=O)Nc2ccc(N[C@H]3CC[C@H](N(C)C)C3)cc21 [US20250034165, Example 136]
IC50 [1]: 0.71 nM | IC50 [2]: 0.34 nM

Cc1cc2cc(n1)-c1cnn(C)c1OCCC[C@@H](C1CC1)CN1/C(=N/C2=O)Nc2cc(N[C@H](C)CCN3CCCCC3)ccc21 [US20250034165, Example 139]
IC50 [1]: 0.087 nM | IC50 [2]: 0.21 nM

Cc1cc2cc(n1)-c1cnn(C)c1OCCC[C@@H](C1CC1)CN1/C(=N/C2=O)Nc2cc(N[C@H]3C[C@@H](N(C)C)C3)ccc21 [US20250034165, Example 125]
IC50 [1]: 0.17 nM | IC50 [2]: 0.094 nM

Cc1cc2cc(n1)-c1cnn(C)c1OCCC[C@@H](C1CC1)CN1/C(=N/C2=O)Nc2cc(N[C@@H](C)CN3CCCCC3)ccc21 [US20250034165, Example 138]
IC50 [1]: 0.13 nM | IC50 [2]: 0.35 nM

Cc1cc2cc(n1)-c1cnn(C)c1OCCC[C@@H](C1CC1)CN1/C(=N/C2=O)Nc2cc(N[C@H]3CC[C@H](O)CC3)ccc21 [US20250034165, Example 151]
IC50 [1]: 0.23 nM | IC50 [2]: 0.25 nM

Cc1cc2cc(n1)-c1cnn(C)c1OCCC[C@@H](C1CC1)CN1/C(=N/C2=O)Nc2cc(N[C@H](C)CN(C)C)ccc21 [US20250034165, Example 67]
IC50 [1]: 0.14 nM | IC50 [2]: 0.49 nM

Cc1cc2cc(n1)-c1cnn(C)c1OCCC[C@@H](C1CC1)CN1/C(=N/C2=O)Nc2cc(N[C@H](C)CN3CCCCC3)ccc21 [US20250034165, Example 137]
IC50 [1]: 0.13 nM | IC50 [2]: 0.52 nM

Cc1cc2cc(n1)-c1cnn(C)c1OCCC[C@@H](C1CC1)CN1/C(=N/C2=O)Nc2cc(N[C@@H]3CC[C@H](N(C)C)C3)ccc21 [US20250034165, Example 133]
IC50 [1]: 0.49 nM | IC50 [2]: 0.66 nM
